30 compounds from patent publication US20100254942A1, “HEPATITIS C ANTIVIRAL COMPOSITIONS AND METHODS” (BIOTRON LIMITED, priority 2007, published 2010) can be followed below.

Type in all cases: cell-based
In data set [1] the test system is bovine viral diarrhea virus (BVDV) strain NADL. Description: BVDV CPE-inhibition assay in MDBK cells. The conditions noted are these: for pIC50: Table 2a, read-out: BVDV IC50; for IC50: BVDV in MDBK cells. As for the experimental part: The antiviral evaluation of selected BIT compounds against BVDV was outsourced to Southern Research Institute (SRI), Fredrick Md. USA. A simple cytoprotection format is used in which the antiviral efficacy of the compounds is assessed by their ability to reduce the cytopathic effect of BVDV infection in Madin-Darby bovine kidney cells (Buckwold et al., 2003)
(§1) A virus-induced cytopathogenic effects (CPE)-inhibition assay procedure was employed to evaluate compounds for antiviral activity against bovine viral diarrhea virus (BVDV) strain NADL, in Madin-Darby bovine kidney (MDBK) cells passaged in T-75 flasks (1, 2). Antiviral assays were designed to test six half-log concentrations of each compound in triplicate against the challenge virus. Cell controls (CC) containing medium alone, virus-infected cell controls (VC) containing medium and virus, drug cytotoxicity controls containing medium and each drug concentration, reagent controls containing culture medium only (no cells), and drug colorimetric controls containing drug and medium (no cells) are run simultaneously with the test samples. Human interferon-α 2b was used as a positive control compound. On the day preceding the assay, the cells were trypsinized, pelleted, counted and resuspended at 1×10^4/well in tissue culture medium in 96-well flat bottom tissue culture plates in a volume of 100 μl per well. One day following plating of cells, the wells were washed and the medium was replaced with complete medium (2% serum) containing various concentrations of test compound diluted in medium in a half-log series. A pre-titered aliquot of virus was removed from the freezer (−80° C.) just before each experiment. The virus was diluted into tissue culture medium such that the amount of virus added to each well would give complete cell killing at 6-7 days post-infection. The plates were incubated at 37° C. in a humidified atmosphere containing 5% CO2 until maximum CPE is observed in the untreated virus control cultures (˜day 7) Inhibition of CPE by the compound was determined using Cell Titer 96 (Promega). A colorimetric method for determining the number of viable cells was used. A computer program was utilized to calculate the percent of CPE reduction of the virus-infected wells and the percentage cell viability of uninfected drug control wells. […] A therapeutic (selectivity) index (TI50) for each active compound was determined by dividing the TC50 by the IC50.
(§2) Drug cytotoxicity was measured separately in uninfected cells. Eleven BIT compounds were tested in the first experiment in which the compounds were added to the cells just prior to infection and were maintained throughout the entire experiment. Two of them, BIT225 and BIT314 returned sub-micromolar IC50 values (see Table 2 below).

The target of data set [2] is T1, HCV p7 ion channel protein (Hepatitis C virus genotype 1a, UniProt P27958).
T1 construct: codons were optimised for expression of the p7 protein in E. coli; expressed in transfected cells; host or cells: E. coli carrying plasmid pPLp7 (pPL451 backbone, temperature-inducible)
T1 sequence (P27958 747-809): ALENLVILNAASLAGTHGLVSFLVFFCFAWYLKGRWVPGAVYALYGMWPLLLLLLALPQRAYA
In words: Bacterial bioassay: growth of E. coli expressing HCV p7. On the set-up: scale not given here. The conditions noted are these: cumulative averaged scores; result above zero indicates potential anti-viral activity. From the text:
The bacterial bioassay method used in the present example to test the anti-viral activity of the compounds against different viral targets was described in detail in PCT/2004/000866, incorporated in its entirety herein by reference. This assay is used in conjunction with the GBV-B and BVDV assays described below, to ensure that all active compounds are identified, some of which are active in one or the other of the assays, while some compounds may be active in both assays.
Briefly, the bacterial bio-assay for screening potential anti-HCV compounds is based on the HCV p7 ion channel protein. p7 is a small membrane protein encoded by HCV, which has a functional activity supporting viral growth and/or replication.
The p7-encoding synthetic cDNA fragment cDp7.coli, in which codons were optimised for expression of the p7 protein in E. coli, was cloned into the expression plasmid pPL451, creating the vector pPLp7, in which p7 expression is temperature inducible, as described in detail in PCT/2004/000866. Inhibition of the growth of E. coli cells expressing p7 at 37° C. was observed as an indicator of p7 ion channel function dissipating the normal Na+gradient maintained by the bacterial cells. Halos of growth around a particular compound application site indicate that the compound has inhibited expression of the p7 ion channel activity that prevents growth in the absence of the compound.
The positive controls were used in this assay to ensure that the assay was working rather than for comparison of relative activities of the compounds.

Data set [3] relates to Madin-Darby bovine kidney (MDBK) cells. Description: Drug cytotoxicity in uninfected MDBK cells. The conditions noted are these: for TC50: uninfected MDBK cells.
Text: as §1, §2

Where [4] appears, read: Bovine viral diarrhea virus isolates and strains, MDBK, nucleoside analog tested individually against BVDV, read-out: EC50.
The mark [5] stands for this setting: Bovine viral diarrhea virus isolates and strains, MDBK.
The mark [6] stands for this setting: compound added just prior to infection and maintained, N/A = not achieved, read-out: IC50.

pEC50, pIC50: −log10 of the molar value. Several values for one entry are separate records, joined by “and”; a condition that tells them apart may be missing. Equal entries are not always repeated. Where two headings read alike, the source gives them in different places.

As usually defined, the pEC50 is −log10 of the EC50, conventionally taken in molar units. Regarding `C[C@@]1(O)[C@H](O)[C@@H](CO)O[C@H]1n1ccc(N)nc1=O` [2′-C-methylcytidine, reference compound], the pEC50 in data set [1] (setting [4]) is 5.56.
What is called pIC50 is −log10 of the IC50, conventionally taken in molar units. As to `N=C(N)NC(=O)c1ccc2c(-c3ccccc3)cccc2c1` [BIT307, (5-phenyl-2-napthoyl)guanidine], in data set [2], the “Average Bacterial Assay Score HCV p7” value stood at 0.46. In data set [1] (setting [5]), the pIC50 was 5.70.
`N=C(N)NC(=O)C=Cc1cc(Br)ccc1F` [BIT124, 5-bromo-2-fluorocinnamoylguanidine]: the “Average Bacterial Assay Score HCV p7” value in data set [2] is 2.70. For the same compound, the TC59 in data set [3] came to 5.21 µM.
On to `N=C(N)NC(=O)c1ccc2c(-c3ccccc3Cl)cccc2c1` [BIT316, (5-(2-chlorophenyl)-2-napthoyl)guanidine], for which, in data set [2], the “Average Bacterial Assay Score HCV p7” value came to 0.37. The pIC50 in data set [1] (setting [5]) is less than 4.70.
In the case of `N=C(N)NC(=O)c1ccc2c(Cl)cccc2c1` [BIT313, (5-chloro-2-napthoyl)guanidine], in data set [2], the “Average Bacterial Assay Score HCV p7” value amounted to 1.30. Further, the pIC50 in data set [1] (setting [5]) was 5.02.
Turning to `COc1ccc2cc(C(=O)NC(=N)N)ccc2c1Br` [BIT223, 5-bromo-6-methoxy-2-napthoylguanidine], in data set [2], the “Average Bacterial Assay Score HCV p7” value amounted to 0.5. For the same compound, the IC50 in data set [1] (setting [6]) turned out to be 4.38 µM. The compound further had a TC50 in data set [3] of more than 30.0 µM.
With `N=C(N)NC(=O)/C=C/c1cccc2c1OCO2` [BIT217, 2,3-methylenedioxycinnamoyl guanidine], in data set [2], the “Average Bacterial Assay Score HCV p7” value is on record as 1.0.
Regarding `CC(=O)Nc1ccc(-c2cccc3cc(C(=O)NC(=N)N)ccc23)cc1` [BIT317, (5-(4-(acetylamino)phenyl)-2-napthoyl)guanidine], in data set [2], the “Average Bacterial Assay Score HCV p7” value was 0.06. The pIC50 in data set [1] (setting [5]) was 5.22.
With `N=C(N)NC(=O)c1ccc2c(-c3cccs3)cccc2c1` [BIT308, (5-(thien-2-yl)-2-napthoyl)guanidine], the “Average Bacterial Assay Score HCV p7” value in data set [2] was determined as 0.55. Besides, in data set [1] (setting [5]), the pIC50 was 5.06.
For `CS(=O)(=O)Nc1ccc(-c2cccc3cc(C(=O)NC(=N)N)ccc23)cc1` [BIT319, (5-(4-((methylsulphonyl)amino)phenyl)-2-napthoyl)guanidine], in that order: 0.10 and less than 4.70.
For `N=C(N)NC(=O)c1ccc2c(-c3ccoc3)cccc2c1` [BIT311, (5-(3-furyl)-2-napthoyl)guanidine], in that order: 0.81 and 5.53.
For `N=C(N)NC(=O)c1ccc2c(C3CC3)cccc2c1` [BIT312, (5-cyclopropyl-2-napthoyl)guanidine], in that order: 1.00 and 5.06.
Broadly, the inhibition is the share of the control response that was lost under treatment. Consider IFN-α, for which the inhibition in data set [1] (5 IU/ml IFNα alone) was approximately 8%. In addition, the IC50 in data set [1] (positive control) turned out to be 20.6 IU/mL. In data set [1] (drug tested individually against BVDV), this compound yielded an EC50 of 21.7 IU/ml. Further, in data set [3], the TC59 was more than 500 IU/mL.
As to `COc1cc(C(=O)NC(=N)N)c(OC)c2ccccc12` [BIT304, (1,4-dimethoxy--2-napthoyl)guanidine], the “Average Bacterial Assay Score HCV p7” value in data set [2] is on record as 0.60. Also, in data set [1] (setting [5]), the negative-log IC50 (pIC50) is less than 4.70.
For `N=C(N)NC(=O)c1ccc2c(Br)cccc2c1` [BIT303, (5-bromo-2-napthoyl)guanidine] the same measures were 0.62 and 4.87.
Turning to `N=C(N)NC(=O)/C=C/c1cccc(C(=O)c2ccccc2)c1` [BIT216, (3-benzoyl)cinnamoylguanidine], the “Average Bacterial Assay Score HCV p7” value in data set [2] stood at 1.3.
For the compound `Cc1cccc2cc(C(=O)NC(=N)N)ccc12` [BIT218, 5-methyl-2-napthoylguanidine], the “Average Bacterial Assay Score HCV p7” value in data set [2] stood at 1.7.
As to `CC(C)Cn1cc(-c2cccc3cc(C(=O)NC(=N)N)ccc23)cn1` [BIT310, (5-(1-isobutyl-1H-pyrazol-4-yl)-2-napthoyl)guanidine], the “Average Bacterial Assay Score HCV p7” value in data set [2] is listed as 0.36. Further, in data set [1] (setting [5]), the negative logarithm of the IC50 (pIC50) is less than 4.70.
As to `N=C(N)NC(=O)C=Cc1ccc(Cl)c(Cl)c1` [BIT300, 3,4-dichlorocinnamoyl guanidine], the “Average Bacterial Assay Score HCV p7” value in data set [2] was found to be 1.12. In addition, the TC59 in data set [3] came out at 3.69 µM.
Turning to `Cc1ccc2cc(C(=O)NC(=N)N)ccc2c1` [BIT306, (6-methyl-2-napthoyl)guanidine], in data set [2], the “Average Bacterial Assay Score HCV p7” value is 0.07. Moreover, in data set [1] (setting [5]), the pIC50 was 4.84.
For `COc1cc2ccccc2cc1C(=O)NC(=N)N` [BIT302, (3-methoxy-2-napthoyl)guanidine] the same measures were 0.76 and 5.14.
For the compound `CC(=O)O.Cn1cc(-c2ccc3cc(C(=O)NC(=N)N)ccc3c2)cn1` [BIT314, (6-(1-methylpryazol-4-yl)-2-napthoyl)guanidinium acetate], the “Average Bacterial Assay Score HCV p7” value in data set [2] was 4.03. In addition, the IC50 in data set [1] (setting [6]) was 0.21 µM. In addition, the pEC50 in data set [1] (Bovine viral diarrhea virus isolates and strains, MDBK, drug alone, average of experiments, read-out: average EC50) is 6.52; in data set [1] (Bovine viral diarrhea virus isolates and strains, MDBK, in the presence of 5 IU/ml IFNα plus 1.25 μg/ml ribavirin, read-out: EC50), 6.74; in data set [1] (Bovine viral diarrhea virus isolates and strains, MDBK, in the presence of 40 IU/ml IFNα, read-out: EC50), approximately 7.22; in data set [1] (drug alone, average of experiments, read-out: average EC50), 6.42; in data set [1] (drug tested individually against BVDV, read-out: EC50) it was 6.68 and 6.41 and 6.27. In addition, in data set [1] (setting [5]), the pIC50 was 6.41. Besides, the “IC50 values (in words)” value in data set [1] (first experiment, Table 2) is “sub-micromolar”. In addition, the TC50 in data set [3] was determined as 11.6 µM.
In the case of `N=C(N)NC(=O)C=Cc1cccc(Br)c1` [BIT067, (3-Bromocinnamoyl)guanidine], in data set [2], the “Average Bacterial Assay Score HCV p7” value worked out at 2.00.
The same measure, in the same setting: the figure for `N=C(N)NC(=O)c1ccc2c(-c3ccsc3)cccc2c1` [BIT224, 5-thiophen-3-yl-2-naphthoylguanidine] is 1.10.
`N=C(N)NC(=O)c1ccc2cc(-c3ccsc3)ccc2c1` [BIT305, (6-(3-thienyl)-2-napthoyl)guanidine]: the “Average Bacterial Assay Score HCV p7” value in data set [2] was 0.08. Moreover, the pIC50 in data set [1] (setting [5]) is less than 4.70.
`N=C(N)NC(=O)/C=C/c1cccc2c1CCC2` [BIT222, 3(indan-4-yl)-propenoylguanidine]: the “Average Bacterial Assay Score HCV p7” value in data set [2] is 2.0.
With `COc1c(C(=O)NC(=N)N)ccc2ccccc12` [BIT301, (1-methoxy-2-napthoyl)guanidine], in data set [2], the “Average Bacterial Assay Score HCV p7” value is 0.25. In data set [1] (setting [5]), the pIC50 is less than 4.70.
With `CC(=O)Nc1cccc(-c2cccc3cc(C(=O)NC(=N)N)ccc23)c1` [BIT318, (5-(3-(acetylamino)phenyl)-2-napthoyl)guanidine], the “Average Bacterial Assay Score HCV p7” value in data set [2] came out at 0.73. In data set [1] (setting [5]), the pIC50 is less than 4.70.
For `COc1ccc(-c2cccc3cc(C(=O)NC(=N)N)ccc23)c(OC)n1` [BIT315, (5-(2,6-dimethoxypryridin-3-yl)-2-napthoyl)guanidine], in that order: 0.20 and less than 4.70.
Regarding `C[C@@]1(O)[C@H](O)[C@@H](CO)O[C@H]1n1cnc2c(N)ncnc21` [2′-C-methyladenosine, reference compound], in data set [1] (setting [4]), the pEC50 is 5.67.
